Experimental data as given in patent US6930104B2, “Heterocyclic derivatives” (Takeda Chemical Industries, Ltd., priority 2001, dated 2005).

| Structure (SMILES) | melting point |
| --- | --- |
| COc1ccc(C(=O)N2CCC(N3CC4(CCN(Cc5ccccc5)CC4)c4ccccc43)c3ccccc32)cc1OC (stereo not shown) | 155 to 157 °C |
| COc1ccc(C(=O)N2c3ccccc3C(N3CCCc4cc(OCc5ccccc5)ccc43)CC2C)cc1OC (stereo not drawn) (hydrate or solvate) [Example 101, 2,4-cis-4-(6-Benzyloxy-1,2,3,4-tetrahydroquinolin-1-yl)-1-(3,4-dimethoxybenzoyl)-2-methyl-1,2,3,4-tetrahydroquinoline] | 164 to 165 °C |
| CCOc1ccc(C(=O)N2c3ccccc3C(N3CCCc4ccccc43)CC2C)cc1OC (stereo not shown) (hydrate or solvate) [Example 103, 1-(4-Ethoxy-3-methoxybenzoyl)-2-methyl-4-(1,2,3,4-tetrahydroquinolin-1-yl)-1,2,3,4-tetrahydroquinoline] | 140 to 142 °C |
| CCOc1ccc(C(=O)N2c3ccccc3C(n3c4ccccc4c4ccccc43)CC2C)cc1OC (stereo not drawn) (hydrate or solvate) [Example 143, 2,4-cis-4-(9H-9-Carbazolyl)-1-(4-ethoxy-3-methoxybenzoyl)-2-methyl-1,2,3,4-tetrahydroquinoline] | 214 to 215 °C |
| CCOc1ccc(C(=O)N2c3ccccc3C(n3c4ccccc4c4ccccc43)CC2C)cc1OCC (stereo not drawn) (hydrate or solvate) [Example 144, 2,4-cis-4-(9H-9-Carbazolyl)-1-(3,4-diethoxybenzoyl)-2-methyl-1,2,3,4-tetrahydroquinoline] | 240 to 241 °C |
| CCCC1CC(n2c3ccccc3c3ccccc32)c2ccccc2N1C(=O)c1ccc(OCC)c(OCC)c1 (stereo not drawn) (hydrate or solvate) [Example 147, 2,4-cis-4-(9H-9-Carbazolyl)-1-(3,4-diethoxybenzoyl)-2-propyl-1,2,3,4-tetrahydroquinoline] | 220 °C |
| COc1ccc(C(=O)N2c3ccccc3C(n3c4ccccc4c4ccccc43)C(O)C2C)cc1OC (stereo not shown) (hydrate or solvate) [Example 162, 4-(9H-9-Carbazolyl)-1-(3,4-dimethoxybenzoyl)-3-hydroxy-2-methyl-1,2,3,4-tetrahydroquinoline] | 194 to 195 °C |
| COc1ccc(C(=O)N2c3ccccc3C(N3CCCc4ccccc43)C(OC(C)=O)C2C)cc1OC (racemic) [Example 17, 2,3-trans-2,4-cis-3-Acetoxy-1-(3,4-dimethoxybenzoyl)-2-methyl-4-(1,2,3,4-tetrahydroquinolin-1-yl)-1,2,3,4-tetrahydroquinoline] | 130 to 131 °C |
| COc1ccc(C(=O)N2c3ccccc3C(N3CCSc4ccccc43)CC2C)cc1OC (racemic) [Example 20, 2,4-cis-4-(3,4-Dihydro-2H-1,4-benzothiazin-4-yl)-1-(3,4-dimethoxybenzoyl)-2-methyl-1,2,3,4-tetrahydroquinoline] | 178 to 180 °C |
| COc1ccc(C(=O)N2CCC(N3CCc4ccccc43)c3ccccc32)cc1OC (stereo not shown) [Example 2, 4-(2,3-Dihydro-1H-indol-1-yl)-1-(3,4-dimethoxybenzoyl)-1,2,3,4-tetrahydroquinoline] | 121 to 123 °C |
| CCCCC1CC(n2c3ccccc3c3ccccc32)c2ccccc2N1C(=O)c1ccc(OC)c(OC)c1 (stereo not drawn) [Example 40, 2,4-cis-2-Butyl-4-(9H-9-carbazolyl)-1-(3,4-dimethoxybenzoyl)-1,2,3,4-tetrahydroquinoline] | 213 °C |
| COc1ccc(C(=O)N2c3ccccc3C(n3c4ccccc4c4ccccc43)CC2CC(C)C)cc1OC (stereo not drawn) [Example 41, 2,4-cis-4-(9H-9-Carbazolyl)-1-(3,4-dimethoxybenzoyl)-2-isobutyl-1,2,3,4-tetrahydroquinoline] | 191 to 193 °C |
| COc1ccc(C(=O)N2c3ccccc3C(n3c4ccccc4c4ccccc43)CC2COCc2ccccc2)cc1OC (stereo not shown) [Example 43, 2-[(Benzyloxy)methyl]-4-(9H-9-carbazolyl)-1-(3,4-dimethoxybenzoyl)-1,2,3,4-tetrahydroquinoline] | 203 to 204 °C |
| CCCCC1C=C(n2c3ccccc3c3ccccc32)c2ccccc2N1C(=O)c1ccc(OC)c(OC)c1 (stereo not shown) [Example 59, 2-Butyl-4-(9H-9-carbazolyl)-1-(3,4-dimethoxybenzoyl)-1,2-dihydroquinoline] | 174 to 175 °C |
| COc1ccc(C(=O)N2c3ccccc3C(N3CCc4ccccc43)CC2C)cc1OC (stereo not shown) [Example 61, 4-(2,3-Dihydro-1H-indol-1-yl)-1-(3,4-dimethoxybenzoyl)-2-methyl-1,2,3,4-tetrahydroquinoline] | 147 to 148 °C |
| COc1ccc(C(=O)N2c3ccccc3C(N3CCSc4ccccc43)CC2C)cc1OC (stereo not shown) [Example 72, 4-[1-(3,4-Dimethoxybenzoyl)-2-methyl-1,2,3,4-tetrahydroquinolin-4-yl]-3,4-dihydro-2H-1,4-benzothiazine] | 113 to 114 °C |
| COc1ccc(C(=O)N2c3ccccc3C(N3CCc4ccccc4C3)CC2C)cc1OC (stereo not shown) [Example 73, 1-(3,4-Dimethoxybenzoyl)-2-methyl-4-(1,2,3,4-tetrahydroisoquinolin-2-yl)-1,2,3,4-tetrahydroquinoline] | 128 to 129 °C |

| Structure (SMILES) | melting point |
| --- | --- |
| CCCC1CC(N2CCCc3ccccc32)c2ccccc2N1C(=O)c1ccc(OC)c(OC)c1 (stereo not drawn) [Example 75, 2,4-cis-1-(3,4-Dimethoxybenzoyl)-2-propyl-4-(1,2,3,4-tetrahydroquinolin-1-yl)-1,2,3,4-tetrahydroquinoline] | 176 to 177 °C |
| CCCCC1C(O)C(N2CCCc3ccccc32)c2ccccc2N1C(=O)c1ccc(OC)c(OC)c1 (stereo not drawn) [Example 76, 2,3-trans-2,4-cis-2-Butyl-1-(3,4-dimethoxybenzoyl)-3-hydroxy-4-(1,2,3,4-tetrahydroquinolin-1-yl)-1,2,3,4-tetrahydroquinoline] | 200 to 202 °C |
| CCCCC1CC(N2CCCc3ccccc32)c2ccccc2N1C(=O)c1ccc(OC)c(OC)c1 (stereo not drawn) [Example 77, 2,4-cis-2-Butyl-1-(3,4-dimethoxybenzoyl)-4-(1,2,3,4-tetrahydroquinolin-1-yl)-1,2,3,4-tetrahydroquinoline] | 159 to 160 °C |
| COc1ccc(C(=O)N2c3ccccc3C(N3CCCc4ccc(C)cc43)CC2C)cc1OC (stereo not drawn) [Example 81, 2,4-cis-1-(3,4-Dimethoxybenzoyl)-2-methyl-4-(7-methyl-1,2,3,4-tetrahydroquinolin-1-yl)-1,2,3,4-tetrahydroquinoline] | 197 to 198 °C |
| COc1ccc(C(=O)N2c3ccccc3C(N3CCCc4cc(C)ccc43)CC2C)cc1OC (stereo not drawn) [Example 83, 2,4-cis-1-(3,4-Dimethoxybenzoyl)-2-methyl-4-(6-methyl-1,2,3,4-tetrahydroquinolin-1-yl)-1,2,3,4-tetrahydroquinoline] | 184 to 185 °C |
| COc1ccc(C(=O)N2c3ccccc3C(N3CCCc4cc(C(C)C)ccc43)C(O)C2C)cc1OC (stereo not drawn) [Example 84, 2,3-trans-2,4-cis-1-(3,4-Dimethoxybenzoyl)-3-hydroxy-4-(6-isopropyl-1,2,3,4-tetrahydroquinolin-1-yl)-2-methyl-1,2,3,4-tetrahydroquinoline] | 165 to 166 °C |
| COc1ccc(C(=O)N2c3ccccc3C(N3CCCc4cc(C(C)C)ccc43)CC2C)cc1OC (stereo not drawn) [Example 85, 2,4-cis-4-(6-Isopropyl-1,2,3,4-tetrahydroquinolin-1-yl)-1-(3,4-dimethoxybenzoyl)-2-methyl-1,2,3,4-tetrahydroquinoline] | 187 to 188 °C |
| CCOc1ccc(C(=O)N2c3ccccc3C(N3CCCc4ccccc43)CC2C)cc1OCC (stereo not shown) [Example 102, 1-(3,4-Diethoxybenzoyl)-2-methyl-4-(1,2,3,4-tetrahydroquinolin-1-yl)-1,2,3,4-tetrahydroquinoline] | 157 to 158 °C |
| COc1ccc(C(=O)N2c3ccccc3C(n3c4ccccc4c4ccccc43)CC2CCCc2ccccc2)cc1OC (stereo not drawn) [Example 116, 9-[2,4-cis-1-(3,4-Dimethoxybenzoyl)-2-(3phenylpropyl)-1,2,3,4-tetrahydroquinolin-4-yl]-9H-carbazole] | 225 to 226 °C |
| COc1ccc(C(=O)N2c3ccccc3C(n3c4ccccc4c4ccccc43)CC2CCCO)cc1OC (stereo not drawn) [Example 118, 3-[2,4-cis-4-(9H-9-Carbazolyl)-1-(3,4-dimethoxybenzoyl)-1,2,3,4-tetrahydroquinolin-2-yl]-1-propanol] | 192 to 194 °C |
| CCCC(=O)NCCCC1CC(n2c3ccccc3c3ccccc32)c2ccccc2N1C(=O)c1ccc(OC)c(OC)c1 (stereo not drawn) [Example 122, N-[3-[2,4-cis-4-(9H-9-Carbazolyl)-1-(3,4-dimethoxybenzoyl)-1,2,3,4-tetrahydroquinolin-2-yl]propyl]butanamide] | 199 to 201 °C |
| COc1ccc(C(=O)N2c3ccccc3C(n3c4ccccc4c4ccccc43)CC2CCCNC(=O)c2ccccc2)cc1OC (stereo not drawn) [Example 124, N-[3-[2,4-cis-4-(9H-9-Carbazolyl)-1-(3,4-dimethoxybenzoyl)-1,2,3,4-tetrahydroquinolin-2-yl]propyl]-benzamide] | 236 to 237 °C |
| CCCC1CC(n2c3ccccc3c3ccccc32)c2ccccc2N1C(=O)c1ccc(OCC)c(OC)c1 (stereo not drawn) [Example 146, 2,4-cis-4-(9H-9-Carbazolyl)-1-(4-ethoxy-3-methoxybenzoyl)-2-propyl-1,2,3,4-tetrahydroquinoline] | 221 to 222 °C |
| CCCCC1CC(n2c3ccccc3c3ccccc32)c2ccccc2N1C(=O)c1ccc(OCC)c(OC)c1 (stereo not drawn) [Example 148, 2,4-cis-9-[2-Butyl-1-(4-ethoxy-3-methoxybenzoyl)-1,2,3,4-tetrahydro-4-quinolinyl]-9H-carbazole] | 231 to 232 °C |
| CCCCC1CC(n2c3ccccc3c3ccccc32)c2ccccc2N1C(=O)c1ccc(OCC)c(OCC)c1 (stereo not drawn) [Example 149, 2,4-cis-9-[2-Butyl-1-(3,4-diethoxybenzoyl)-1,2,3,4-tetrahydro-4-quinolinyl]-9H-carbazole] | 232 to 233 °C |
| CCC1CC(n2c3ccccc3c3ccccc32)c2ccccc2N1C(=O)c1ccc(SC)c(OC)c1 (stereo not drawn) [Example 150, 2,4-cis-9-[2-Ethyl-1-(3-methoxy-4-methylthiobenzoyl)-1,2,3,4-tetrahydro-4-quinolinyl]-9H-carbazole] | 210 to 211 °C |
| CCCCC1CC(n2c3ccccc3c3ccccc32)c2ccccc2N1C(=O)c1ccc(SC)c(OC)c1 (stereo not drawn) [Example 151, 2,4-cis-9-[2-Butyl-1-(3-methoxy-4-methylthiobenzoyl)-1,2,3,4-tetrahydro-4-quinolinyl]-9H-carbazole] | 230 to 231 °C |
